Assay in all cases: growth of human tumour cells (NCI), 48 h
The test system of experiment [1] is SF-268.
For experiment [2], the system named is MCF7.
For experiment [3], the system named is COLO 205.
The test system of experiment [4] is HL-60.
The test system of experiment [5] is UACC-257.
Experiment [6] relates to SNB-75.
The subject of experiment [7] is OVCAR-4.
For experiment [8], the system named is SF-539.
In experiment [9] the test system is MDA-MB-435.
For experiment [10], the system named is HOP-92.
Experiment [11] has as its system CAKI-1.
The subject of experiment [12] is HT-29.
Experiment [13] relates to MDA-MB-231.
Experiment [14] deals with OVCAR-8.
Experiment [15] relates to RPMI-8226.
Experiment [16] relates to A498.
Experiment [17] concerns OVCAR-3.
Experiment [18] has as its system K562.
The test system of experiment [19] is HCT-15.

SMILES strings stand for the structures.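 Interpolation was linear, between the two tested concentrations surrounding the appropriate level; five concentrations were tested over 48 hours in 96-well plates. Here, GI50 denotes the concentration required for 50% inhibition of growth.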 Calls of active or inactive are those of the source. Rule as the data show it: active = GI50 up to about 1.1 µM and inactive = higher. A value given as a limit tells only on which side of the number the result lay.

The results in this text go back to ChEMBL document CHEMBL1201862, “PubChem BioAssay data set” (2004).

For the compound `O=C(Nc1cc2cc([N+](=O)[O-])ccc2oc1=O)c1cccs1`, the GI50 is 33.2 µM (inactive) in experiment [1]; 19.6 µM (inactive) in experiment [2]; 25.2 µM (inactive) in experiment [3]; 16.7 µM (inactive) in experiment [4]; 75.2 µM (inactive) in [5]; 2.78 µM (inactive) in [6]. Besides, the GI50 was 43.6 µM (inactive) in [7]; 25.6 µM (inactive) in experiment [8]; 25.2 µM (inactive) in [9]; 37.6 µM (inactive) in experiment [10]; 48.6 µM (inactive) in experiment [11]; 39.5 µM (inactive) in experiment [12]. Besides, the GI50 was 34.9 µM (inactive) in experiment [13]; 34.2 µM (inactive) in [14]; 34 µM (inactive) in experiment [15]; > 100 µM (inactive) in [16]; 97.5 µM (inactive) in [17]; 25.9 µM (inactive) in experiment [18].

For `NC(=O)N/N=C/c1ccccc1O`, the GI50 was > 100 µM (inactive) in [1]; > 100 µM (inactive) in experiment [2]; > 100 µM (inactive) in experiment [3]; 53.1 µM (inactive) in experiment [4]; over 100 µM in experiment [19]; > 100 µM (inactive) in [5]. Moreover, the GI50 in [6], in experiment [7], in experiment [8], in [9], in [10] and in experiment [11] was > 100 µM (inactive) throughout. Besides, the GI50 in experiment [12], in experiment [13], in [14], in experiment [15], in [16] and in experiment [18] was > 100 µM (inactive) each time.

As to `OCC1(CNc2cc(Cl)ncn2)CCC1`, the GI50 in experiment [1] is > 100 µM (inactive); in experiment [2], > 100 µM (inactive); in experiment [3], > 100 µM (inactive); in experiment [4], > 100 µM (inactive); in experiment [19] it was over 100 µM; in [5], > 100 µM (inactive). The GI50 in experiment [6], in [7], in [8], in experiment [9], in [10] and in experiment [12] was > 100 µM (inactive) each time. In addition, the GI50 in [13], in experiment [14], in experiment [15], in experiment [16], in experiment [17] and in experiment [18] was > 100 µM (inactive) throughout.

As for `CC(=O)Oc1ccc2c(c1)c1c(OC(C)=O)c3ccccc3c(OC(C)=O)c1n2Cc1cccc(C)c1`, the GI50 in [1] is 29.8 µM (inactive); in [2], 44.3 µM (inactive); in experiment [3] it was 60.5 µM (inactive); in experiment [4] it was 42.4 µM (inactive); in experiment [19], 53.7 µM; in experiment [6], 18.5 µM (inactive). In addition, the GI50 in experiment [7] is 33.3 µM (inactive); in experiment [8], 25.1 µM (inactive); in [9], 65.6 µM (inactive); in experiment [10] it was 1.5 µM (inactive); in experiment [11], 40.3 µM (inactive); in [12] it was > 100 µM (inactive). In addition, the GI50 was 31.1 µM (inactive) in [13]; 48.6 µM (inactive) in experiment [14]; 20.5 µM (inactive) in [15]; 29.3 µM (inactive) in experiment [16]; 21.4 µM (inactive) in [17]; 32.1 µM (inactive) in [18].

For `COC(=O)c1c(O)ccc2c1c1cc3ccccc3c(O)c1n2Cc1ccccc1Cl`, the GI50 in experiment [1] was 19.3 µM (inactive); in experiment [2], 30.3 µM (inactive); in experiment [3], 16.8 µM (inactive); in [4], 32.8 µM (inactive); in experiment [19], 19.2 µM; in [5], 47.5 µM (inactive). Besides, the GI50 in [7] was 11.6 µM (inactive); in experiment [8] it was 17.3 µM (inactive); in experiment [9] it was 18.5 µM (inactive); in experiment [10], 16.9 µM (inactive); in experiment [11] it was 22.4 µM (inactive); in [12] it was 11.7 µM (inactive). Also, the GI50 is 32.3 µM (inactive) in experiment [13]; 25.3 µM (inactive) in experiment [14]; 20.4 µM (inactive) in experiment [15]; > 100 µM (inactive) in experiment [16]; 15.7 µM (inactive) in [17]; 31.5 µM (inactive) in experiment [18].

In the case of `O=C(OCC1OC2OC(c3ccccc3)(n3ccc4c([N+](=O)[O-])ccnc43)OC2C1OC(=O)c1ccccc1)c1ccccc1` (stereo not given), the GI50 in experiment [2] is > 100 µM (inactive); in experiment [4] it was > 100 µM (inactive); in experiment [19], over 100 µM; in experiment [5], > 100 µM (inactive); in [7] it was > 100 µM (inactive); in experiment [9] it was > 100 µM (inactive). Further, the GI50 in [10], in experiment [11], in experiment [12], in [13], in [14] and in [15] was > 100 µM (inactive) throughout. For the same compound, the GI50 in experiment [16], in experiment [17] and in [18] was > 100 µM (inactive) throughout.

In the case of `O=CC1C(=O)Nc2nc3ccccc3n2C1c1ccccc1` (stereo not given), the GI50 was 12.1 µM (inactive) in experiment [1]; 10.6 µM (inactive) in [2]; 11.4 µM (inactive) in experiment [3]; 20.6 µM (inactive) in experiment [4]; 15.1 µM in experiment [19]; 15 µM (inactive) in [5]. Further, the GI50 in [6] is 5.75 µM (inactive); in [7] it was 24.7 µM (inactive); in experiment [8], 17.9 µM (inactive); in [9] it was 17.9 µM (inactive); in experiment [10] it was 12.4 µM (inactive); in experiment [11] it was 21.1 µM (inactive). Besides, the GI50 in experiment [12] was 20.4 µM (inactive); in experiment [13], 15.4 µM (inactive); in experiment [14], 11.7 µM (inactive); in [15], 16.3 µM (inactive); in [16] it was 14.3 µM (inactive); in experiment [17], 7.89 µM (inactive). Further, the GI50 in experiment [18] was 4.37 µM (inactive).

Consider `O=C1/C(=C/c2ccc(Cl)cc2)N=C(c2ccccc2)N1C1Nc2cc3c(cc2S1)NC(N1C(=O)/C(=C/c2ccc(Cl)cc2)N=C1c1ccccc1)S3` (stereo not given), for which the GI50 in experiment [1] is 27 µM (inactive); in experiment [2] it was 42.2 µM (inactive); in experiment [4] it was 0.336 µM (active); in experiment [19] it was 49 µM; in experiment [5], > 100 µM (inactive); in experiment [7], 59.2 µM (inactive). Also, the GI50 is > 100 µM (inactive) in experiment [8]; 52.8 µM (inactive) in experiment [9]; 48.6 µM (inactive) in experiment [10]; > 100 µM (inactive) in experiment [11]; 52.6 µM (inactive) in [12]; > 100 µM (inactive) in experiment [13]. Besides, the GI50 in experiment [14] was 39.1 µM (inactive); in [15], 23.8 µM (inactive); in [16] it was > 100 µM (inactive); in experiment [17], 49.8 µM (inactive); in experiment [18], 21.2 µM (inactive).

For the compound `CCOP(C)(=O)C(N)Cc1ccc(OC)c(OC)c1` (stereo not given), the GI50 is > 100 µM (inactive) in [1]; > 100 µM (inactive) in [2]; > 100 µM (inactive) in [3]; > 100 µM (inactive) in [4]; over 100 µM in [19]; > 100 µM (inactive) in experiment [6]. The GI50 in experiment [7], in [8], in [9], in experiment [10], in experiment [11] and in experiment [12] was > 100 µM (inactive) throughout. Moreover, the GI50 in [13], in experiment [14], in [15], in [16], in experiment [17] and in experiment [18] was > 100 µM (inactive) each time.

`Cc1nc(O)nc2nc3ccc(Cl)cc3c(N(CCO)CCO)c12`: the GI50 in experiment [1] was > 100 µM (inactive); in experiment [2], > 100 µM (inactive); in experiment [3], > 100 µM (inactive); in experiment [4], > 100 µM (inactive); in experiment [19], 94.4 µM; in experiment [5], > 100 µM (inactive). The GI50 is 18.4 µM (inactive) in [7]; > 100 µM (inactive) in experiment [8]; > 100 µM (inactive) in experiment [9]; > 100 µM (inactive) in experiment [10]; 96.2 µM (inactive) in experiment [11]; > 100 µM (inactive) in experiment [12]. The GI50 in experiment [13] was 39 µM (inactive); in [14], > 100 µM (inactive); in experiment [15] it was 52.6 µM (inactive); in experiment [16], > 100 µM (inactive); in [17] it was > 100 µM (inactive); in [18], 85.7 µM (inactive).

Regarding `Clc1cccc2[nH]ncc12`, the GI50 in experiment [2] was 64.6 µM (inactive); in experiment [3], 74.6 µM (inactive); in [4], > 100 µM (inactive); in experiment [19] it was over 100 µM; in [5] it was > 100 µM (inactive); in experiment [6] it was 45.3 µM (inactive). Moreover, the GI50 was > 100 µM (inactive) in experiment [7]; > 100 µM (inactive) in [8]; > 100 µM (inactive) in experiment [9]; > 100 µM (inactive) in [10]; 68.4 µM (inactive) in [11]; > 100 µM (inactive) in [12]. For the same compound, the GI50 in experiment [13], in experiment [14], in experiment [15], in [16], in [17] and in experiment [18] was > 100 µM (inactive) in each case.
